In patent US5013841A, “Oxo quinoline derivatives” (Dainippon Pharmaceutical Co., Ltd., priority 1987, dated 1991) one finds MIC and LD50 data, which are given here for two compounds.

In brackets after ≈: the same amount, converted by molar mass. Where two headings read alike, the source gives them in different places.

The test system of one data set is E. coli P-5101. As to the kind of experiment: In vitro antibacterial activity (twofold agar-dilution method). Conditions: Escherichia coli, P5101; E. coli P-5101; agar dilution, 20 h, 37° C., calculated for free base; read-out: minimum inhibitory concentration (MIC). The data set is classed as cell-based. As for the experimental part:
(§1) The figures in the table show minimum inhibitory concentrations (MIC) (μg/ml), calculated for free base. The minimum inhibitory concentration was determined by the twofold agar-dilution method, which was recommended by Japan Society of Chemotherapy (Chemotherapy, 29(1), 76(1981)), using Muller-Hinton agar. One loopful of an overnight culture of test organisms in Mueller-Hinton broth was inoculated onto 10-ml drug-containing agar layers in petri dishes. Bacterial inocula contained approximately 10^6 colonyl-formingunits. Bacterial growth was observed after 20-hour incubation at 37° C. The MIC was defined as the lowest drug concentration which prevented visible bacterial growth.

The subject of another data set is Flavobacterium sp P-7201. The description is as above. As to conditions: read-out: minimum inhibitory concentration (MIC). The data set is classed as cell-based. The procedure:
as §1

A further data set concerns S. aureus Terajima. The data set is described as above. The format is cell-based. As to conditions: Staphylococcus aureus, 20 h, read-out: minimum inhibitory concentration (MIC). As for the experimental part: as §1
The next data set deals with S. marcescens IFO 3736. Described as above. The format is cell-based. Conditions: Serratia marcescens, IFO3736; S. marcescens IFO 3736; agar dilution, 20 h, 37° C., calculated for free base; read-out: minimum inhibitory concentration (MIC). As for the experimental part:
as §1

Another data set has as its system A. laidlawii PG-8. As to the kind of experiment: Antimycoplasma activity (twofold agar dilution method). The format is cell-based. Conditions: Acholeplasma laidlawii, PG8, 48 h, read-out: minimum inhibitory concentration (MIC). The procedure: (§2) The figures in the table show minimum inhibitory concentrations (MIC), (μg/ml), calculated for free base.
(§3) Minimum inhibitory concentrations (MIC) were determined by the twofold agar dilution method. The media used were Chanock broth and agar PPLD broth and agar (Difco) supplemented with 20% horse serum and 10% fresh yeast extract). A 2-3 day broth culture of organisms was diluted with Chanock broth to a cell density of about 10^6 cells/ml. One loopful (about […]) of the organism dilution was spotted onto 10-ml drug containing Chanock agar in petri dishes using a multiple inoculator (Cathra International). The petri dishes were incubated at 37° C. for 7 and 2 days for Mycoplasma pneumoniae and other Mycoplasma spp. respectively. Incubation was performed anaerobically using the Gaspak anaerobic system (BBL) for M. buccale, M. fermentans, M. hominis, M. orale and M. salivarium, and aerobically for other Mycoplasma spp. The MIC was defined as the lowest compound concentration at which no growth of organism was detected.

Another data set deals with M. arginini G-230. The description is as above. The data set is classed as cell-based. As to conditions: 48 h, read-out: minimum inhibitory concentration (MIC). As for the experimental part: as §2, §3
For the next data set, the system named is M. buccale CH-20249. The description is as above. The format is cell-based. As to conditions: 48 h, read-out: minimum inhibitory concentration (MIC). As for the experimental part:
as §2, §3

In the next data set the test system is M. fermentans PG-18. The data set is described as above. The data set is classed as cell-based. As to conditions: Mycoplasmopsis fermentans, PG18, 48 h; M. fermentans PG-18; Chanock agar, 37° C., 2 days, anaerobic, calculated for free base; read-out: minimum inhibitory concentration (MIC). The procedure: as §2, §3
Another data set concerns M. hominis PG-21. Described as above. The data set is classed as cell-based. Conditions: Metamycoplasma hominis, PG21, 48 h; M. hominis PG-21; Chanock agar, 37° C., 2 days, anaerobic, calculated for free base; read-out: minimum inhibitory concentration (MIC). The procedure:
as §2, §3

The subject of another data set is M. hyorhinis BST-7. The description is as above. The data set is classed as cell-based. Conditions: Mesomycoplasma hyorhinis, BST7, 48 h, read-out: minimum inhibitory concentration (MIC). The procedure:
as §2, §3

A further data set concerns M. orale CH-19299. Described as above. The data set is classed as cell-based. Conditions: 48 h, read-out: minimum inhibitory concentration (MIC). The procedure: as §2, §3
The next data set concerns M. salivarium PG-20. The data set is described as above. Conditions: 48 h, read-out: minimum inhibitory concentration (MIC). The format is cell-based. The procedure: as §2, §3
Data set [1] relates to C. Trachomatics G/ur 1317. As to the kind of experiment: Antichlamydia activity (inclusion bodies in McCoy cells). As to conditions: 36° C., 40-48 h, calculated for free base, read-out: minimum inhibitory concentration (MIC). The format is cell-based. The procedure: (§4) Minimum inhibitory concentrations (MIC) were determined as follows. McCoy cells were freshly cultured in Eagle's minimum essential medium (EMEM) (Flow) supplemented with 4% fetal bovine serum and 0.03% L-glutamine. The cells were trypsinized and suspended in the same culture medium at a cell concentration of 1-2×10^5 cells/ml. One ml of the cell suspension was pipetted into flat-bottomed plastic tubes (14 mm in diameter) containing a cover slip (12 mm in diameter). The tubes were incubated in 5% CO2 -air at 36° C. for 20 hours. One-half ml of a chlamydial suspension (ca. 1-4×10^3 inclusion body forming units) was added into each tube, which was then centrifuged at 1500×g for 60 minutes. The tubes were incubated for 1 hour at 36° C. The medium was changed with 1 ml of EMEM supplemented with 8% fetal bovine serum, 0.03% L-blutamine, 1μg/ml cycloheximide and 0.5% glucose, and containing drugs at various concentrations. After further incubation at 36° C. for 40-48 hours, the cells on the cover glasses were stained with the Giemsa's solution. […] The MIC was defined as the lowest drug concentration where there were no inclusion bodies in all the cells on the cover slip.

In data set [2] the test system is C. Trachomatics G/ur 1467. The description is as above. As to conditions: 36° C., 40-48 h, calculated for free base, read-out: minimum inhibitory concentration (MIC). The data set is classed as cell-based. The procedure: as §4
Data set [3] deals with C. Trachomatics G/ur 1483. The description is as above. The format is cell-based. Conditions: 36° C., 40-48 h, calculated for free base, read-out: minimum inhibitory concentration (MIC). The procedure: as §4
For a further data set, the system named is C. Trachomatics G/ur 931. The description is as above. The data set is classed as cell-based. As to conditions: 36° C., 40-48 h, calculated for free base, read-out: minimum inhibitory concentration (MIC). As for the experimental part: as §4
Data set [4] in a line: Acute oral toxicity in mice. As to conditions: mouse, in vivo, male mice (ddY), 7 days, Behrens-Kaerber method, read-out: median lethal dose (LD50). As for the experimental part:
A suspension containing each of compounds of this invention in various concentrations was orally given to male mice (ddY) at a dose of 0.1 ml per 10 g of body weight. The number of dead mice was counted after 7 days, and the value of median lethal dose (LD50, mg/kg) was calculated in accordance with the Behrens-Kaerber method.

`Nc1c(F)c(N2CCNCC2)cc2c1c(=O)c(C(=O)O)cn2C1CC1` [Compound 1]: the MIC in the data set with E. coli P-5101 is 0.0063 µg/mL (≈ 0.0182 µM); with Flavobacterium sp P-7201 (P7201, Flavobacterium sp P-7201, agar dilution, 20 h, 37° C., calculated for free base), 0.1 µg/mL (≈ 0.289 µM); in the data set on S. aureus Terajima (S. aureus Terajima, agar dilution, 37° C., calculated for free base) it was 0.05 µg/mL (≈ 0.144 µM); with S. marcescens IFO 3736 it was 0.1 µg/mL (≈ 0.289 µM); with A. laidlawii PG-8 (A. laidlawii PG-8, Chanock agar, 37° C., 2 days, aerobic, calculated for free base), 0.1 µg/mL (≈ 0.289 µM); in the data set with M. arginini G-230 (M. arginini G-230, Chanock agar, 37° C., 2 days, aerobic, calculated for free base), 0.1 µg/mL (≈ 0.289 µM). Also, the MIC in the data set with M. buccale CH-20249 (M. buccale CH-20249, Chanock agar, 37° C., 2 days, anaerobic, calculated for free base) was 0.1 µg/mL (≈ 0.289 µM); with M. fermentans PG-18, 0.1 µg/mL (≈ 0.289 µM); in the data set on M. hominis PG-21 it was 0.39 µg/mL (≈ 1.13 µM); in the data set on M. hyorhinis BST-7 (M. hyorhinis BST-7, Chanock agar, 37° C., 2 days, aerobic, calculated for free base) it was 0.1 µg/mL (≈ 0.289 µM); in the data set with M. orale CH-19299 (M. orale CH-19299, Chanock agar, 37° C., 2 days, anaerobic, calculated for free base), 0.39 µg/mL (≈ 1.13 µM); in the data set on M. salivarium PG-20 (M. salivarium PG-20, Chanock agar, 37° C., 2 days, anaerobic, calculated for free base), 1.56 µg/mL (≈ 4.5 µM). The MIC (in data set [1]; in [2]; in [3]; in the data set on C. Trachomatics G/ur 931) was 0.25 µg/mL (≈ 0.722 µM) throughout. For the same compound, the LD50 at 168 h in data set [4] was above 2000 mg/kg.
On to `C[C@@H]1CN(c2cc3c(c(N)c2F)c(=O)c(C(=O)O)cn3C2CC2)C[C@H](C)N1` [Compound 2, 5-amino-1-cyclopropyl-6-fluoro-7-(cis-3,5-dimethyl-1-piperazinyl)-1,4-dihydro-4-oxoquinoline-3-carboxylic acid], for which the MIC is 0.025 µg/mL (≈ 0.0668 µM) in the data set with E. coli P-5101; 0.1 µg/mL (≈ 0.267 µM) with Flavobacterium sp P-7201 (Flavobacterium, P7201, 20 h); 0.05 µg/mL (≈ 0.134 µM) in the data set on S. aureus Terajima; 0.78 µg/mL (≈ 2.08 µM) with S. marcescens IFO 3736; 0.05 µg/mL (≈ 0.134 µM) with A. laidlawii PG-8; 0.05 µg/mL (≈ 0.134 µM) with M. arginini G-230. In addition, the MIC in the data set on M. buccale CH-20249 was 0.05 µg/mL (≈ 0.134 µM); with M. fermentans PG-18 it was 0.025 µg/mL (≈ 0.0668 µM); in the data set on M. hominis PG-21, 0.1 µg/mL (≈ 0.267 µM); in the data set on M. hyorhinis BST-7, 0.05 µg/mL (≈ 0.134 µM); with M. orale CH-19299, 0.39 µg/mL (≈ 1.04 µM); in the data set with M. salivarium PG-20, 0.39 µg/mL (≈ 1.04 µM). For the same compound, the MIC (in [1]; in data set [2]; in data set [3]; in the data set on C. Trachomatics G/ur 931) was 0.063 µg/mL (≈ 0.168 µM) in each case. The LD50 at 168 h in data set [4] was above 2000 mg/kg.

As a reminder, the LD50 is the dose expected to kill half of the subjects tested.
